Patent US20260200980A1, “METHODS AND COMPOSITIONS FOR TREATING OCULAR LESIONS” (priority 2022, published 2026)
Values joined by “and” are separate entries in the source; they are usually repeats but may differ in a detail not shown here. Equal entries are not always repeated. Where two headings read alike, the source gives them in different places. Where no end group is shown, it is not given here.

How the values were obtained:
[1] = rabbit, in vivo
Experimental: Pharmacokinetic analyses were performed on the vitreous humor concentration data.
Seven animals received a repeat IVT dose at 2 mg/mL (0.1 mg/eye) on Day 90.
Vitreous humor, retina, and choroid were collected on days 1, 7, 14, 28, 42, 61, 90, 97, 151, and 168. Eyes were enucleated, snap frozen using liquid nitrogen, and kept on dry ice or frozen at −80° C. until dissected for collection of aqueous humor, vitreous humor, retina, choroid, iris-ciliary body (ICB), and lens.
To homogenize ocular tissue samples, weighed amounts of control bovine vitreous humor, retina, and choroid were homogenized in USA scientific impact resistant microtubes containing 2.8 mm ceramic beads. Unknown rabbit vitreous humor, retina, and choroid samples were homogenized in USA scientific impact resistant microtubes containing 2.8 mm ceramic beads. […]

[2] = test system: visual function; assay: ETDRS Vision (Letters Read), BCVA, in patients treated with ONL1204; type: in vivo, human
[3] = test system: ocular lesion; assay: Lesion size in historical (V1-V3) and treatment phase (V3-V9), 2 injections of ONL1204 3 months apart; type: in vivo, human; conditions: for % Change Nat His Phase (Using Sqrt Transformation): V1 to V3, 24 weeks before treatment; for % Change Tx Phase (Using Sqrt Transformation) / V1 Lesion Size / V3 Lesion Size / V9 Lesion Size: study eye; for % Change Tx Phase (Using Sqrt Transformation): V3 to V9, 24 weeks; for % Change Tx Phase (Using Sqrt Transformation) / V9 Lesion Size: 2 injections 3 months apart; for V1 Lesion Size: visit 1, start of historical phase, before treatment; for V3 Lesion Size: visit 3, end of historical phase, start of treatment; for V9 Lesion Size: visit 9, 24 weeks after first treatment
Experimental: (§1) Table 1A and 1B show reduced lesion sizes associated with treated eyes at week 24. Percent (%) change is measured relative the untreated fellow eye. […] Table 3A, 3B and 3C show reduced lesion sizes associated with treated eyes (Tables 3A and 3C) in addition to associated historical lesion growth (Tables 3A and 3B). […] For “% Change Based on Sqrt Transformation” and similar measures, the square root of the lesion area was determined and the % difference between the starting value and the last timepoint was calculated. Percent (%) change is measured relative the untreated fellow eye.

[4] = minipig, in vivo
Experimental: Seven animals received a repeat IVT dose at 2 mg/mL (0.1 mg/eye) on Day 90. […] Vitreous humor, retina, and choroid were collected on days 1, 7, 14, 28, and 88.

[5] = test system: ocular lesion; assay: Lesion size in patients 24 weeks after intravitreal ONL1204; type: in vivo, human; conditions: for % Change in Lesion Growth: week 24, study eye relative to untreated fellow eye; for % Change Based on Sqrt Transformation / Baseline Lesion Size / Week 24 Lesion Size: study eye; for % Change Based on Sqrt Transformation: baseline to week 24, square root of lesion area; for Baseline Lesion Size: baseline prior to treatment
Experimental: The primary endpoints were the safety profile associated with single and multiple dosing in this study, including: adverse event reporting, clinical evaluations including lesion size and clinical evaluation.
Baseline best lesion size (area in square millimeters) was measured prior to treatment with ONL1204. […] The following doses were evaluated: 50 ug, 100 ug, and 200 ug (micrograms).
as §1

[6] = test system: male rabbit NaIO3 model; assay: Sodium iodate (NaIO3) challenge study, duration of protection; type: in vivo; conditions: for lesion area vs negative control: NaIO3 challenge Day 4
Experimental: Animals were anesthetized with isoflurane vapors to effect. […] No reflux was noted on the dosing record.
Animals were anesthetized with isoflurane vapors to effect. […] NaIO3 causes one or more regions of atrophy and depigmentation which creates a window into the choroid.
The resulting area was then measured.

HHIYLGAVNYIY-NH2 [ONL1204]
detection in retinal tissue as well as the vitreous humor [1]: detected
detection in the vitreous humor [1]: detected
visual function (e.g., BCVA as measured by letters read) ([2]; eyes having a patchy lesion): improved visual function
ETDRS Vision (Letters Read) Week 1 ([2]; study eye, 50 μg): 42 Letters Read and 33 Letters Read
ETDRS Vision (Letters Read) Week 2 ([2]; study eye, 50 μg): 34 Letters Read and 33 Letters Read
ETDRS Vision (Letters Read) Week 4 ([2]; study eye, 50 μg): 36 Letters Read and 33 Letters Read
ETDRS Vision (Letters Read) Week 12 ([2]; study eye, 50 μg): 36 Letters Read
ETDRS Vision (Letters Read) Week 24 ([2]; study eye, 50 μg): 42 Letters Read and 35 Letters Read
ETDRS Vision (Letters Read) Screening/Baseline ([2]; study eye, 50 μg, before treatment): 23 Letters Read and 26 Letters Read
ETDRS Vision (Letters Read) Week 1 ([2]; study eye, 100 μg): 13 Letters Read
ETDRS Vision (Letters Read) Week 2 ([2]; study eye, 100 μg): 13 Letters Read and 19 Letters Read
ETDRS Vision (Letters Read) Week 12 ([2]; study eye, 100 μg): 15 Letters Read and 27 Letters Read
ETDRS Vision (Letters Read) Week 24 ([2]; study eye, 100 μg): 15 Letters Read and 24 Letters Read
ETDRS Vision (Letters Read) Screening/Baseline ([2]; study eye, 100 μg, before treatment): 14 Letters Read and 11 Letters Read
ETDRS Vision (Letters Read) Week 1 ([2]; study eye, 200 μg): 29 Letters Read and 31 Letters Read
ETDRS Vision (Letters Read) Week 2 ([2]; study eye, 200 μg): 32 Letters Read and 30 Letters Read
ETDRS Vision (Letters Read) Week 4 ([2]; study eye, 200 μg): 30 Letters Read and 38 Letters Read
ETDRS Vision (Letters Read) Week 12 ([2]; study eye, 200 μg): 28 Letters Read and 41 Letters Read
ETDRS Vision (Letters Read) Week 24 ([2]; study eye, 200 μg): 26 Letters Read and 40 Letters Read
ETDRS Vision (Letters Read) Baseline ([2]; study eye, 200 μg, baseline visit, on a different day from screening, before treatment): 25 Letters Read
ETDRS Vision (Letters Read) Screening/Baseline ([2]; study eye, 200 μg, before treatment): 39 Letters Read
ETDRS Vision (Letters Read) Screening ([2]; study eye, 200 μg, screening visit, on a different day from baseline, before treatment): 19 Letters Read
% Change Nat His Phase (Using Sqrt Transformation) ([3]; study eye later given 50 ug): 5.31% and 1.38%
% Change Nat His Phase (Using Sqrt Transformation) ([3]; study eye later given 100 ug): 2.97% and 3.20%
% Change Tx Phase (Using Sqrt Transformation) ([3]; 50 ug): 3.74% and 0.05%
V1 Lesion Size ([3]; 50 ug): 12.08 mm^2 and 18.41 mm^2
V3 Lesion Size ([3]; 50 ug): 13.4 mm^2 and 18.92 mm^2
V9 Lesion Size ([3]; 50 ug): 14.42 mm^2 and 18.94 mm^2
% Change Tx Phase (Using Sqrt Transformation) ([3]; 100 ug): 3.37% and 1.39%
V1 Lesion Size ([3]; 100 ug): 5.64 mm^2 and 7.7 mm^2
V3 Lesion Size ([3]; 100 ug): 5.98 mm^2 and 8.2 mm^2
V9 Lesion Size ([3]; 100 ug): 6.39 mm^2 and 8.43 mm^2
detection in the vitreous humor [4]: detected
% Change in Lesion Growth ([5]; 50 ug): −45%
% Change in Lesion Growth ([5]; 100 ug): −27% and −32%
% Change in Lesion Growth ([5]; 200 ug): −57% and −53%
lesion size growth ([5]; all patients, doses 50, 100 and 200 ug, compared to untreated fellow eye): reduction in lesion size growth
% Change Based on Sqrt Transformation ([5]; 50 ug): 4.14% and 6.95%
Baseline Lesion Size ([5]; 100 ug intravitreal): 20.1 mm^2 and 24.16 mm^2
Week 24 Lesion Size ([5]; 100 ug intravitreal): 21.2 mm2 and 27.61 mm2
% Change Based on Sqrt Transformation ([5]; 100 ug): 2.70% and 6.90%
Baseline Lesion Size ([5]; 200 ug intravitreal): 9.37 mm^2 and 9.09 mm^2
Week 24 Lesion Size ([5]; 200 ug intravitreal): 9.81 mm2 and 9.78 mm2
% Change Based on Sqrt Transformation ([5]; 200 ug): 2.32% and 3.73%
lesion area vs negative control ([6]; 25 ug per eye IVT Day 0): significantly lower than negative control
lesion area vs negative control ([6]; 100 ug per eye IVT Day 0): significantly lower than negative control
lesion size vs negative controls and 25 ug group ([6]; 100 ug per eye IVT Day 0, NaIO3 challenge Day 14): significantly smaller lesion size
lesion size vs negative control animals and 25 ug group ([6]; 100 ug per eye IVT Day 0, NaIO3 challenge Day 28): significantly smaller lesion size
mean lesion size ([6]; across challenge time points): substantive reduction
